Reference: patent publication US8545872B2, “Device for the transdermal administration of a rotigotine base” (UCB Pharma GmbH, priority 2002, dated 2013)

Tests used:
[1] = cited from earlier work
[2] = Solubility of rotigotine in polymers and solvents; type: physicochemical; details: e.g. hexane, ethyl acetate and toluol

- Solubility of the crystals in solvents suitable for dissolving matrix polymers [2]: nearly insoluble
SMILES: CCCN(CCc1cccs1)[C@H]1CCc2c(O)cccc2C1 [Rotigotine, (−)-5,6,7,8-tetrahydro-6-[propyl[2-(2-thienyl)ethyl]amino]-1-naphtol]
- Solubility in hydrophobic polymers such as silicon [1]: only feebly soluble
